Data as given in patent US20190209539A1, “THIOHYDANTOIN ANDROGEN RECEPTOR ANTAGONISTS FOR THE TREATMENT OF CANCER” (Janssen Pharmaceutica NV, priority 2016, published 2019).
Several values for one entry are separate records, joined by “and”; a condition that tells them apart may be missing. Identical values can stand only once.

Tests used:
rGABA-gated Cl− channel = test: GABA-gated Cl Channel Antagonist Radioligand Binding Assay ([35S]-TBPS, cerebral cortex membranes); set-up: species or system rat; conditions: 3 nM [35S]-TBPS
Experimental: GABA-gated Cl Chanel assays were performed at CEREP according to the following method. Membrane homogenates of cerebral cortex (120 μg protein) were incubated for 120 min at 22° C. with 3 nM [^35S]-TBPS in the absence or presence of the test compound in a buffer containing 50 mM Na2HPO4/KH2PO4 (pH 7.4) and 500 mM NaCl. Nonspecific binding was determined in the presence of 20 μM picrotoxinin. Following incubation, the samples were filtered rapidly under vacuum through glass fiber filters (GF/B, Packard) presoaked with 0.3% PEI and rinsed several times with ice-cold 50 mM Tris-HCl using a 96-sample cell harvester (Unifilter, Packard). The filters were dried then counted for radioactivity in a scintillation counter (Topcount, Packard) using a scintillation cocktail (Microscint 0, Packard). The results are expressed as a percent inhibition of the control radio ligand specific binding. The standard reference compound is picrotoxinin, which was tested in each experiment at several concentrations to obtain a competition curve from which its ICso was calculated. In this assay, the following representative compounds disclosed herein had recorded activities at a 10 μM single point concentration in the GABA-gated Cl-Channel Binding Assay.

GR (human) = target: T1, GR (human) (Homo sapiens, UniProt P04150); test: Radioligand binding to GR ([3H]dexamethasone, IM-9 cells cytosol)
T1 construct: GR (human) (agonist radioligand) IM-9 cells (cytosol); endogenous in cells; host or cells: IM-9 cells (cytosol)
T1 sequence (P04150 1-777): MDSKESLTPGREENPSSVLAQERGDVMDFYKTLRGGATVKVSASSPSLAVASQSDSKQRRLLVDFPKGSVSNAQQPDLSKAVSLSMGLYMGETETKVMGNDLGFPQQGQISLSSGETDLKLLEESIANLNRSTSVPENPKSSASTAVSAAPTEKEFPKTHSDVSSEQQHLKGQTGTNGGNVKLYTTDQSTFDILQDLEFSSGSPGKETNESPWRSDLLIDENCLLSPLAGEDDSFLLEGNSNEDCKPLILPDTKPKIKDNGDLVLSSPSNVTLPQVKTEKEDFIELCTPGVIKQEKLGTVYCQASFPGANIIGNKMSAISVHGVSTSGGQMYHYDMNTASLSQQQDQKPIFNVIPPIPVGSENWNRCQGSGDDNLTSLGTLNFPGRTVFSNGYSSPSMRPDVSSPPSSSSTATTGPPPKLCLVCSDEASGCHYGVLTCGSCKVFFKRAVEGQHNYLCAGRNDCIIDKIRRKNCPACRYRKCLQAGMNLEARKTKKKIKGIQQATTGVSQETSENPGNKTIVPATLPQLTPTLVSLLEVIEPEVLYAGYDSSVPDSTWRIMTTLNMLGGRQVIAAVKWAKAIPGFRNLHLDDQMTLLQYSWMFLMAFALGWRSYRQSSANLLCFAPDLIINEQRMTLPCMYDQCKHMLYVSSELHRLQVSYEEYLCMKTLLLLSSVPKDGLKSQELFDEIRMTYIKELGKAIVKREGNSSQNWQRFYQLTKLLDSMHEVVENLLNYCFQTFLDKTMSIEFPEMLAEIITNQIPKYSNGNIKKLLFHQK
Experimental: Radioligand binding assays were performed with the cell extracts and ligands as detailed below. Complete methodology is contained within the cited publications. Kd values were determined by Non-Specific Incubation Detection Method.
GR (human) (agonist radioligand) IM-9 cells (cytosol) [^3H]dexamethasone 1.5 nM 1.5 nM triamcinolone (10 μM) 6 h 4° C. Scintillation counting (Clark, A. F et al. (1996) Invest. Ophtalmol. Vis. Sci., 37: 805-813). ER (nonselective) (human) (agonist radioligand) MCF-7 cells (cytosol) [^3H]estradiol 0.4 nM 0.2 nM 17-β-estradiol (6 μM) 20 h 4° C. Scintillation counting (Parker, G. J et al.(2000) J. Biomol. Screen., 5: 77-88).
The results are expressed as a percent of control specific binding measured specific binding *100 control specific binding and as a percent inhibition of control specific binding 100-(measured specific binding*100) control specific binding obtained in the presence of compoundn.
The IC50 values (concentration causing a half-maximal inhibition of control specific binding) and Hill coefficients (nH) were determined by non-linear regression analysis of the competition curves generated with mean replicate values using Hill equation curve fitting.
The inhibition constants (Ki) were calculated using the Cheng Prusoff equation:
wherein L=concentration of radioligand in the assay, and KD=affinity of the radioligand for the receptor. […]

LNCaP F876L = test: LNCaP Proliferation Assay (LNCaP F876L); assay type: cell-based; conditions: Homo sapiens, 96 h, 4 days, normalized to 0.1 nM R1881 stimulation
Experimental: (§1) LNCaP cells were expanded in RPMI 10% FBS in T150 flasks. The cells were dislodged with 0.25% Trypsin, washed in complete media, centrifuged (300 g, 3 min), and the supernatant aspirated. The cells were resuspended in RPMI phenol-red free media with 1% charcoal-stripped serum (CSS) and counted using a ViCELL (Beckman-Coulter). 7500 cells were added to each well of a white optical bottom 384-well plate and incubated for 2 days at 37° C. 5% CO2. Compound dilutions were prepared in RPMI CSS using 50 mM stock solutions and added to the cells either alone (agonist mode) or in combination with 0.1nM R1881 (antagonist mode). The plates were incubated for 4 days, followed by addition of CellTiter-Glo Luminescent Cell Viability kit reagent (Promega). The plates were placed on a shaker at 3000 rpm for 10 minutes and then read on an EnVision plate reader (Perkin Elmer) using Luminescence assay default settings. The data was analyzed, normalized to 0.1 nM R1881 stimulation, and plotted in GraphPad Prism.

VCaP cells = test: Prostate Cancer Cell Viability Assay-VCaP; assay type: cell-based; conditions: Homo sapiens, 120 h, 5 days incubation, CellTiter-Glo
Experimental: VCaP cells were counted and seeded into black 384-well plates with clear bottoms at a concentration of 125,000 cells per mL in phenol red-free DMEM containing 10% Charcoal Stripped Serum. 16 μL of the suspension was added per well and incubated for 48 h to allow the cells to adhere. After 48 hours, a 12 point serial semilog dilution of each compound was added to the cells in 16 μL at a final concentration of 100 μM to 0.0003 μM. The compounds of Formula (I) were also run in antagonist mode using 30 pM R1881 in which 8 μL of the compound was added to the cells followed by 8 μL of R1881. After 5 days of incubation at 37° C., 16 μL Of CellTiter-Glo (Promega) was added to the cells and the relative luminescence units (RLUs) of each well determined using the Envision. The percent stimulation and % inhibition were determined for each sample and plotted using GraphPad Prism.

LNCaP WT = test: LNCaP Proliferation Assay (LNCaP WT); assay type: cell-based; conditions: Homo sapiens, 96 h, 4 days, normalized to 0.1 nM R1881 stimulation
Experimental: as §1

In the case of `CN1CCC(Oc2ccc(N3C(=S)N(c4cnc(C#N)c(C(F)(F)F)c4)C(=O)C34CCC4)cc2)CC1` [Cpd 85, 5-[8-[4-[(1-methyl-4-piperidyl)oxy]phenyl]-5-oxo-7-thioxo-6,8-diazaspiro[3.4]octan-6-yl]-3-(trifluoromethyl)pyridine-2-carbonitrile], the IC50 (rGABA-gated Cl− channel) is reported as 13 µM, the “% inhibition @ 10 μM” value (rGABA-gated Cl− channel; 10 μM single point) is reported as 42% and 49% and the Ki (GR (human); Cheng Prusoff, [3H]-dexamethasone) is reported as 9.9 µM. For the same compound, the IC50 (GR (human); [3H]-dexamethasone 1.5 nM, IM-9 cytosol) was 20 µM, the IC50 (LNCaP F876L) was 8.87 µM and the IC50 (VCaP cells) was 0.076 µM. It also gave an IC50 (LNCaP WT) of 3.29 µM.
